In patent US20230091047A1 (priority 2019, published 2023):
Read-outs that look alike come from different tables or passages of the source.

Columns and labels:
[1] = in vitro; assay type: cell-based; settings: human, HepG2 or HepG2.117 cells, 3-days incubation (unmarked values), ATPlite; mean value
Summary of the method: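 Luminescent ATP quantitation served as the viability endpoint following a 3- or 4-day incubation with test compounds.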

[2] = tested on: HBV (HepG2.117 cell line, inducibly HBV producing); test: Anti-HBV activity: intracellular HBV DNA by real-time PCR in HepG2.117 cells after 3 days of treatment; assay type: cell-based, hepatitis B virus; settings: HepG2.117 cells, 3 days of treatment, intracellular HBV DNA by real-time PCR, mean value, read-out: EC50 (μM, mean value)
Summary of the method: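 HepG2.117 cells replicate HBV under Tet-off control, without doxycycline. After induction of replication, cells were treated with serially diluted compound for 3 days, and intracellular HBV DNA was then quantified by real-time PCR with an HBV-specific primer set and probe.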

[3] = Hepatitis B virus, HepG2.117, 72 h

| Structure (SMILES) | CC50 at 3 days [1] | EC50 [2, 3] | EC50 [2] |
| --- | --- | --- | --- |
| COc1ccc(CNc2nc3c(c(=O)n2-c2cc(OC)cc(S(C)(=O)=O)c2)CCN(C(=O)c2ccc(Cl)c(Cl)c2)C3)cc1 [Compound C87, 7-(3,4-dichlorobenzoyl)-3-[3-(methanesulfonyl)-5-methoxyphenyl]-2-{[(4-methoxyphenyl)methyl]amino}-5,6,7,8-tetrahydropyrido[3,4-d]pyrimidin-4(3H)-one] | > 50 µM | 1.55 µM |  |
| COc1cc(-n2c(NC(C)C)nc3c(c2=O)CCN(C(=O)c2ccc(Cl)c(Cl)c2)C3)cc(S(C)(=O)=O)c1 [Compound C88, 7-(3,4-dichlorobenzoyl)-3-[3-(methanesulfonyl)-5-methoxyphenyl]-2-[(propan-2-yl)amino]-5,6,7,8-tetrahydropyrido[3,4-d]pyrimidin-4(3H)-one] | > 50 µM | 4.99 µM |  |
| C=CCNc1nc2c(c(=O)n1CC=C)CCN(C(=O)c1ccc(Cl)c(Cl)c1)C2 [Compound C89, 7-(3,4-dichlorobenzoyl)-3-(prop-2-en-1-yl)-2-[(prop-2-en-1-yl)amino]-5,6,7,8-tetrahydropyrido[3,4-d]pyrimidin-4(3H)-one] | > 50 µM | 8.76 µM |  |
| COc1ccc(CN(CCCO)c2nc3c(c(=O)[nH]2)CCN(C(=O)c2ccc(Cl)c(Cl)c2)C3)cc1 [Compound C90, 7-(3,4-dichlorobenzoyl)-2-{(3-hydroxypropyl)[(4-methoxyphenyl)methyl]amino}-5,6,7,8-tetrahydropyrido[3,4-d]pyrimidin-4(3H)-one] | 21.2 µM | 8 µM |  |
| COc1ccc(CN(CCO)c2nc3c(c(=O)[nH]2)CCN(C(=O)c2ccc(Cl)c(Cl)c2)C3)cc1 [Compound C91, 7-(3,4-dichlorobenzoyl)-2-{(2-hydroxyethyl)[(4-methoxyphenyl)methyl]amino}-5,6,7,8-tetrahydropyrido[3,4-d]pyrimidin-4(3H)-one] | 22.2 µM | 8.92 µM |  |
| COc1ccc(C(CCO)Nc2nc3c(c(=O)[nH]2)CCN(C(=O)c2ccc(Cl)c(Cl)c2)C3)cc1 (stereo not shown) [Compound C92, 7-(3,4-dichlorobenzoyl)-2-{[3-hydroxy-1-(4-methoxyphenyl)propyl]amino}-5,6,7,8-tetrahydropyrido[3,4-d]pyrimidin-4(3H)-one] | 24.8 µM | 7.09 µM |  |
| COc1ccc(CNc2nc3c(c(=O)n2C2CCOCC2)CCN(C(=O)c2ccc(Cl)c(Cl)c2)C3)cc1 [Compound C93, 7-(3,4-dichlorobenzoyl)-2-{[(4-methoxyphenyl)methyl]amino}-3-(oxan-4-yl)-5,6,7,8-tetrahydropyrido[3,4-d]pyrimidin-4(3H)-one] | 32 µM | 1.73 µM |  |
| COc1ccc(CNc2nc3c(c(=O)[nH]2)CC(c2ccc(F)cc2)N(C(=O)c2ccc(Cl)c(Cl)c2)C3)cc1 (stereo not shown) [Compound C94, 7-(3,4-dichlorobenzoyl)-6-(4-fluorophenyl)-2-{[(4-methoxyphenyl)methyl]amino}-5,6,7,8-tetrahydropyrido[3,4-d]pyrimidin-4(3H)-one] | > 50 µM | 0.77 µM |  |
| COc1ccccc1-n1c(N)nc2c(c1=O)CC(C)N(C(=O)c1ccc(Cl)c(Cl)c1)C2 (stereo not shown) [Compound C95, 2-amino-7-(3,4-dichlorobenzoyl)-3-(2-methoxyphenyl)-6-methyl-5,6,7,8-tetrahydropyrido[3,4-d]pyrimidin-4(3H)-one] | > 50 µM | 1.02 µM |  |
| COc1ccc(CNc2nc3c(c(=O)n2-c2cccnc2C)CCN(C(=O)c2ccc(Cl)c(Cl)c2)C3)cc1 [Compound C96, 7-(3,4-dichlorobenzoyl)-2-{[(4-methoxyphenyl)methyl]amino}-3-(2-methylpyridin-3-yl)-5,6,7,8-tetrahydropyrido[3,4-d]pyrimidin-4(3H)-one] | 24.3 µM | 0.65 µM |  |
| CC(C)N(CCO)c1nc2c(c(=O)[nH]1)CCN(C(=O)c1ccc(Cl)c(Cl)c1)C2 [Compound C97, 7-(3,4-dichlorobenzoyl)-2-[(2-hydroxyethyl)(propan-2-yl)amino]-5,6,7,8-tetrahydropyrido[3,4-d]pyrimidin-4(3H)-one] | > 50 µM | 3.22 µM |  |
| O=C(c1ccc(Cl)c(Cl)c1)N1CCc2c(nc(NC(CO)CO)[nH]c2=O)C1 [Compound C98, 7-(3,4-dichlorobenzoyl)-2-[(1,3-dihydroxypropan-2-yl)amino]-5,6,7,8-tetrahydropyrido[3,4-d]pyrimidin-4(3H)-one] | > 50 µM | 36.5 µM |  |
| Cc1ncccc1-n1c(NC(C)C)nc2c(c1=O)CCN(C(=O)c1ccc(Cl)c(Cl)c1)C2 [Compound C99, 7-(3,4-dichlorobenzoyl)-3-(2-methylpyridin-3-yl)-2-[(propan-2-yl)amino]-5,6,7,8-tetrahydropyrido[3,4-d]pyrimidin-4(3H)-one] | 28.3 µM | 2.05 µM |  |
| CC(C)Nc1nc2c(c(=O)n1-c1ccc(S(C)(=O)=O)cc1)CC(C)N(C(=O)c1ccc(Cl)c(Cl)c1)C2 (stereo not shown) [Compound C100, 7-(3,4-dichlorobenzoyl)-3-[4-(methanesulfonyl)phenyl]-6-methyl-2-[(propan-2-yl)amino]-5,6,7,8-tetrahydropyrido[3,4-d]pyrimidin-4(3H)-one] | > 25 µM | 0.51 µM |  |
| CC(C)Nc1nc2c(c(=O)n1-c1ccc(S(C)(=O)=O)cc1)C[C@@H](C)N(C(=O)c1ccc(Cl)c(Cl)c1)C2 [Compound C100A, (6R)-7-(3,4-dichlorobenzoyl)-3-[4-(methanesulfonyl)phenyl]-6-methyl-2-[(propan-2-yl)amino]-5,6,7,8-tetrahydropyrido[3,4-d]pyrimidin-4(3H)-one] | > 50 µM |  | 0.27 µM |
| CC(C)Nc1nc2c(c(=O)n1-c1ccc(S(C)(=O)=O)cc1)C[C@H](C)N(C(=O)c1ccc(Cl)c(Cl)c1)C2 [Compound C100B, (6S)-7-(3,4-dichlorobenzoyl)-3-[4-(methanesulfonyl)phenyl]-6-methyl-2-[(propan-2-yl)amino]-5,6,7,8-tetrahydropyrido[3,4-d]pyrimidin-4(3H)-one] | > 50 µM | 10.1 µM |  |
| COc1ccc(CNc2nc3c(c(=O)n2-c2ccc(S(C)(=O)=O)nc2)CCN(C(=O)c2ccc(Cl)c(Cl)c2)C3)cc1 [Compound C102, 7-(3,4-dichlorobenzoyl)-3-[6-(methanesulfonyl)pyridin-3-yl]-2-{[(4-methoxyphenyl)methyl]amino}-5,6,7,8-tetrahydropyrido[3,4-d]pyrimidin-4(3H)-one] | > 50 µM | 0.39 µM |  |
| COc1ccc(CNc2nc3c(c(=O)[nH]2)CCN(C(=O)c2ccc(Cl)c(C#N)c2)C3)cc1 [Compound C103, 2-chloro-5-[2-{[(4-methoxyphenyl)methyl]amino}-4-oxo-4,5,6,8-tetrahydropyrido[3,4-d]pyrimidine-7(3H)-carbonyl]benzonitrile] | > 50 µM | 18.3 µM |  |
| COc1ccc(CNc2nc3c(c(=O)[nH]2)CCN(C(=O)c2ccc(Br)c(C)c2)C3)cc1 [Compound C104, 7-(4-bromo-3-methylbenzoyl)-2-{[(4-methoxyphenyl)methyl]amino}-5,6,7,8-tetrahydropyrido[3,4-d]pyrimidin-4(3H)-one] | 24.1 µM | 1.8 µM |  |
| COc1ccc(CNc2nc3c(c(=O)[nH]2)CCN(C(=O)c2ccc(Br)c(C#N)c2)C3)cc1 [Compound C105, 2-bromo-5-[2-{[(4-methoxyphenyl)methyl]amino}-4-oxo-4,5,6,8-tetrahydropyrido[3,4-d]pyrimidine-7(3H)-carbonyl]benzonitrile] | > 50 µM | 6.81 µM |  |
